Reference: patent US10538475B2, “Amphiphilic cyclobutenes and cylobutanes” (priority 2012, dated 2020)
Where two headings read alike, the source gives them in different places.

Tests used:
[1] = test system: M. smeg (mc2155); assay: MIC by 96-well microplate twofold dilution, M. smeg; assay type: cell-based; settings: for MIC: M. smeg mc2155, minimal media, 3-4 day; for fold differences between MICs for M. smeg and M. tb: M. smeg vs M. tb
[2] = test system: M. tb (CDC1551); assay: MIC by 96-well microplate twofold dilution, M. tb CDC1551; assay type: cell-based, Mycobacterium tuberculosis; settings: minimal media, 5-7 weeks
[3] = test system: M. tb (H37Rv); assay: MIC by 96-well microplate twofold dilution, M. tb H37Rv; assay type: cell-based, Mycobacterium tuberculosis; settings: minimal media, 5-7 weeks
[4] = 1D 1H NMR aqueous stability and concentration dependent micelle formation; assay type: physicochemical; settings: 100 μM, 500 μM, 750 μM, and 1000 μM; FIG. 2
Description: One-dimensional (1D)^1H-NMR spectroscopy was used to verify the chemical purity, aqueous stability, and concentration dependent micelle formation of eleven fatty acid analogs. Each compound was dissolved in deuterated dimethyl sulfoxide (DMSO-d6) to obtain a stock concentration of 20 mM. Four different concentrations were prepared from the stock solutions for NMR analysis: 1.00 mM, 750 μM, 500 μM, 100 μM. All NMR samples consisted of 600 μL of a deuterated 50 mM potassium phosphate buffer at pH 7.2 with 50 μM of 3 (trimethylsilyl) propionic-2,2,3,3-d4 acid sodium salt (TMSP). Each 600 μL NMR sample contains 30 μL (5%) of DMSO-d6 and was transferred to a 5 mm NMR tube for analysis.
A Bruker Avance DRX 500-MHz spectrometer equipped with a 5 mm triple-resonance cryoprobe (^1H, ^13C, ^15N) with a z-axis gradient was utilized for all 1D ^1H NMR experiments. Acquisition of NMR spectra was automated using a BACS-120 sample changer and Icon NMR software. All spectra were acquired at 298.15 K with 16 dummy scans, 64 scans, 32K data points, a spectral width of 5482.46 Hz, and a relaxation delay of 1.5 s. The NMR spectra were processed and analyzed using ACD/1D NMR Manager (Advanced Chemistry Development). The resulting 1D ^1H NMR spectra were visually inspected for evidence of micelle formation (peak broadening), or chemical instability/impurities (additional peaks). […]

[5] = test system: RAW 264.7 macrophages; settings: cited from earlier work
[6] = test system: M. smeg (mc2155); settings: M. tb vs M. smeg; cited from earlier work
[7] = highest concentration tested 1024 μg/ml
[8] = highest concentration tested 256 μg/ml
[9] = highest concentration tested 1024 μg/ml, read-out: MIC
[10] = Mycobacterium tuberculosis, highest concentration tested 256 μg/ml, read-out: MIC
[11] = Mycobacterium tuberculosis, H37RV, highest concentration tested 256 μg/ml, read-out: MIC

Row | Molecule | MIC [1, 7] [µg/mL] | MIC ([1]; read-out: MIC) [µM] | fold differences between MICs for M. smeg and M. tb [1] | MIC [2, 8] [µg/mL] | MIC [3, 8] [µg/mL] | MIC ([2]; read-out: MIC) [µM] | MIC ([3]; read-out: MIC) [µM] | other results
1 | 2-(Octanoic acid, 8-yl) 3-octylcyclobutanol and 3-(Octanoic acid, 8-yl) 2-octylcyclobutanol [Compound 4] | 256 | 784 | five to ten | 8 | 2 | – | – | –
2 | O=C(O)CCCCCCCC1C=CC1 (stereo not shown) [Compound 8, 8-(2-Cyclobuten-1-yl)-octanoic acid] | – | 326 | five to ten | – | – | – | – | MIC [1, 9]: 64 µg/mL; MIC [2, 10]: 4 µg/mL; MIC [3, 11]: 4 µg/mL; micelle formation (peak broadening relative to TMSP) [4]: No micelle formation
3 | CCCCCCCCC1=C(CCCCCCCC(=O)O)CC1 [Compound 6, 1-(Octanoic acid, 8-yl)-2-octylcyclobutene] | 256 | 830 | five to ten | 128 | 16 | 415 | 52 | –
4 | 2-Chloro-4-(octanoic acid, 8-yl) 3-octylcyclobutanone-; 2-Chloro-3-(octanoic acid, 8-yl) 4-octylcyclobutanone [Compound 5] | 256 | 713 | – | 256 | 16 | 713 | 45 | –
5 | N[C@@H]1CONC1=O [DCS, D-cycloserine, reference compound] | 75 | 313 | – | 12.5 | 12.5 | 122 | 122 | –
6 | O=C(O)CCCCCCCC1CC(O)C1 (stereo not shown) [Compound 11, 3-(Octanoic acid)cyclobutanol] | 64 | 302 | – | 64 | 128 | 299 | 597 | MIC [1]: ~313 µM
7 | CCCCCCCC[C@H]1CC[C@H]1CCCCCCCC(=O)O (relative stereo) [Compound 2, cis-9,10-Ethanooctadecanoic acid] | 64 | 206 | five to ten | 8 | 16 | – | 52 | MIC [1]: ~313 µM
8 | CCCCCCCC/C=C\CCCCCCCC(=O)O [oleate, oleic acid] | – | – | – | – | – | – | – | concentrations displaying some toxicity to this cell line [5]: ≥ 200 µM
9 | NNC(=O)c1ccncc1 [Isoniazid] | – | – | – | – | – | – | – | fold more potent inhibition of M. tb compared with M. smeg [6]: 100 fold
10 | 2-(Octanoic acid, 8-yl) 3-octylcyclobutanone and 3-(octanoic acid, 8-yl) 2-octylcyclobutanone [Compound 3] | 64 | 197 | – | 64 | 32 | 197 | 99 | MIC [1]: ~313 µM
11 | CCCCCCCCCC(=O)O [Decanoic acid (DA), Decanoic acid, reference compound] | – | 752 | – | – | – | – | – | MIC [1, 9]: 128 µg/mL; MIC [2, 10]: 32 µg/mL; MIC ([2]; Mycobacterium tuberculosis, read-out: MIC): 188 µM; MIC [3, 11]: 32 µg/mL; MIC ([3]; Mycobacterium tuberculosis, H37RV, read-out: MIC): 188 µM
12 | O=C(O)CCCCCCCC1CC(=O)C1 [Compound 10, 3-(Octanoic acid, 8-yl)cyclobutanone] | 128 | 603 | – | 128 | 256 | 603 | – | MIC [3]: 1,206 μM
13 | O=C(O)CCCCCCCC1CCC1 [Compound 9, 8-Cyclobutyloctanoic acid] | – | 645 | five to ten | – | – | – | – | MIC [1, 9]: 128 µg/mL; MIC [2, 10]: 4 µg/mL; MIC [3, 11]: 4 µg/mL
